From ChEMBL document CHEMBL1135542, “Successful virtual screening for novel inhibitors of human carbonic anhydrase: strategy and experimental confirmation” (J Med Chem, 2002) come the findings set out here.

Assay [1] has as its target T1, Carbonic anhydrase 2 (Homo sapiens, UniProt P00918).
The target in assay [2] is T1, Carbonic anhydrase 2. The source holds these as a separate data set.
In assay [3] the target is T1, Carbonic anhydrase 2. This is another data set of the same source.

`COCCOCCN(CCOC)c1cc2cc(S(N)(=O)=O)sc2s1` returned an IC50 in assay [1] of 2.8 nM. The compound further showed an inhibition constant Ki in assay [2] of 1.58 nM.

With `NS(=O)(=O)c1cc2cc(N3CCSCC3)sc2s1`, 2.6 nM corresponded to half-maximal inhibition in assay [1] (IC50). In assay [2], the Ki was determined as 0.44 nM.

In assay [1], `NS(=O)(=O)c1cc2cc(N3CCOCC3)sc2s1` showed an IC50 of 3 nM. The compound also showed a Ki in assay [2] of 1.1 nM.

In turn, `NC(=O)NCCOCCOCCNC(=O)c1ccc(S(N)(=O)=O)cc1` yielded an equilibrium dissociation constant (Kd) in assay [3] of 43 nM.

In assay [2], `NS(=O)(=O)OCCOc1ccc(-n2ccnc2)cc1` registered a Ki of 7 nM.

Turning to `CCCCCCCCCS(=O)(=O)C(F)S(N)(=O)=O` (configuration not stated), the half-inhibitory concentration (IC50) in assay [1] was 3 nM.

Take `CN(C)c1cccc2c(S(N)(=O)=O)cccc12`: the affinity in assay [3], expressed as Kd, was 93000 nM.

`CN(C)Cc1cc(S(=O)(=O)c2ccc(S(N)(=O)=O)s2)ccc1O` displayed a half-inhibitory concentration (IC50) in assay [1] of 0.7 nM. This lies in the sub-nanomolar range.

Take `CN(C)S(=O)(=O)Oc1ccc2nc(S(N)(=O)=O)sc2c1`: 1.2 nM corresponded to half-maximal inhibition in assay [1] (IC50).

Compound `CC1(C)O[C@H]2[C@@H]3OS(=O)(=O)O[C@@H]3CC[C@@]2(COS(N)(=O)=O)O1` returned an IC50 in assay [1] of 130 nM.

`CC(C)(C)C(=O)Oc1ccc2sc(S(N)(=O)=O)cc2c1`: the half-inhibitory concentration (IC50) in assay [1] was 2.6 nM.

Compound `CCN[C@H]1CN(CCCCOC)S(=O)(=O)c2sc(S(N)(=O)=O)cc21` registered a 50% inhibitory concentration (IC50) in assay [1] of 3.2 nM. Besides, the Kd in assay [3] turned out to be 0.13 nM.

As to `N[C@@H](Cc1ccccc1)C(=O)NCCOCCOCCNC(=O)c1ccc(S(N)(=O)=O)cc1` [PHENYLALANYLAMINODI(ETHYLOXY)ETHYL BENZENESULFONAMIDEAMINOCARBONYLBENZENESULFONAMIDE], the Kd in assay [3] is 14 nM.

Usually IC50 stands for the concentration that inhibits the measured activity by half. Read a low IC50 as higher potency. In general, Ki refers to a dissociation constant, usually derived from enzyme kinetics or from competition with a known ligand. Read a high Ki as a looser hold on the target. The term Kd denotes the free concentration of one partner at which half of the binding sites on the other are occupied at equilibrium, for simple one-to-one binding. Low values mean higher affinity, high ones lower affinity.
